# Reference: US7572765B2, “Conformationally constrained parathyroid hormone (PTH) analogs” (The General Hospital Corporation, priority 2001, dated 2009)
# How the values were obtained:
# [1] = molecular target: T1, human P1R (Homo sapiens, UniProt Q03431); conditions: HKRK-B28 cells; previously shown (Shimizu et al., Endocrinology 2001); read-out: cAMP EC50; cited from earlier work
# T1 construct: expressed in transfected cells; host or cells: HKRK-B28 (porcine kidney LLC-PK1, stably transfected)
# T1 sequence (Q03431 27-593): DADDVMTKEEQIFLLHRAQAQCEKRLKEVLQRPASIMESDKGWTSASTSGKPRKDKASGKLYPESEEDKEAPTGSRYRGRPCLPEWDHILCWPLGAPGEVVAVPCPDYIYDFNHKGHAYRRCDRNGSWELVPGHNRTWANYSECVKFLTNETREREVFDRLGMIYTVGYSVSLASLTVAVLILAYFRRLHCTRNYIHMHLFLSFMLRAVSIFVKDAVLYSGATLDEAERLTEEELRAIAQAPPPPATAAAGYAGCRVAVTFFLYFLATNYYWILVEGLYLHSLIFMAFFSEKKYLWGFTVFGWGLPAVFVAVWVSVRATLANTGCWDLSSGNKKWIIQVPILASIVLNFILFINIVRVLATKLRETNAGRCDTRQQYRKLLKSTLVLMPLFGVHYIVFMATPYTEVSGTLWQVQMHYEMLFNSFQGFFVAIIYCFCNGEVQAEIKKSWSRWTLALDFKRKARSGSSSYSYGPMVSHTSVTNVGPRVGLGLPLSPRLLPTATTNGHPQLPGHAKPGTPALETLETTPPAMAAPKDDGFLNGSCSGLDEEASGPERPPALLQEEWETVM
# [2] = Circular dichroism spectroscopy (helical content); assay type: physicochemical
# Experimental: Circular Dichroism. Circular Dichroism spectra were recorded on a Jasco model 710 spectropolarimeter; peptides were analyzed at a concentration of20 μM in 50 mM sodium phosphate buffer pH 7.4, or the same buffer containing 2,2,2-trifluoroethanol at 20% (v/v). Spectroscopic scans were preformed at 20° C. and at wavelengths between […], with data recored at each 1 nM interval. The spectral bandwidth was 1.5 nM and 8 scans were accumulated and averaged for each sample. At each wavelength, the mean residue elipticity [θ×100/l×C×n); where θ is the raw elipticity value (in dimensions of millidegree), l is the sample path length, C=is the molar peptide concentration, and n is the number of residues in the peptide (Bowen, W. P., and Jerman, J. C., Trends in Pharmacol. Sci. 16: 413-417 (1995)). The helical content of each peptide was estimated by dividing [θ] observed at 222 nM for that peptide by −28,100, which is the reported [θ]222obs for a model helical decapeptide (Bowen, W. P., and Jerman, J. C., Trends in Pharmacol. Sci. 16: 413-417 (1995)).
# Circular dichroism (CD) spectroscopy was used to analyze the potential effects that the Aib substitutions had on peptide secondary structure when the peptides were free in solution. Samples were analyzed in both aqueous phosphate buffer and in phosphate buffer containing 2,2,2-trifloroethanol, an organic solvent which promotes helical structure in oligopeptides, including PTH peptide fragments (Pellegrini, M., et al., J. Biol. Chem. 273:10420-10427 (1998); Gronwald, W., et al., Biol. Chem. Hoppe Seyler 377:175-186 (1996); Barden, J. A., and Kemp, B. E., Biochemistry 32:7126-7132 (1993)). In phosphate buffer, the helical content of each peptide, estimated from the elipticity observed at 222 nM, was small (≦16%); however, [Aib^1,3,M]PTH(1-14) contained nearly twice as much helix as did [M]PTH(1-14) (16% and 8.1% respectively), as did [Aib^1,3,M]PTH(1-1l), as compared to […] (13% and 7.5% respectively, Table 4). […] The higher helical contents of these two peptides were evident not only from the negative elipticities at […] and 222 nM, but also from the positive elipticities at 192 nM (FIG. 6).
substance,measurement,setting,value
"[Ala^3,Gln^10,Har^11]PTH(1-11)amide [[M]PTH(1-11)]",EC50,[1],3000 nM
same,"[0]222obs × 10^−3, Phos.","[2]; 20 μM peptide, 50 mM phosphate buffer pH 7.4",−2.1
same,"[0]222obs × 10^−3, Phos + TFE","[2]; 20 μM peptide, 50 mM phosphate buffer with trifluoroethanol (20%)",−9.9
same,"helical residues (%), Phos + TFE","[2]; 50 mM phosphate buffer with trifluoroethanol (20%), from elipticity at 222 nM",35%
same,"helical residues (%), Phos.","[2]; 50 mM phosphate buffer, from elipticity at 222 nM",7.5%
